What was measured:
[1] = target: T1, Sex hormone-binding globulin (Homo sapiens) (UniProt P04278); assay: In vitro relative binding affinity against hSHBG (human sex hormone binding globulin)
T1 sequence (whole entry): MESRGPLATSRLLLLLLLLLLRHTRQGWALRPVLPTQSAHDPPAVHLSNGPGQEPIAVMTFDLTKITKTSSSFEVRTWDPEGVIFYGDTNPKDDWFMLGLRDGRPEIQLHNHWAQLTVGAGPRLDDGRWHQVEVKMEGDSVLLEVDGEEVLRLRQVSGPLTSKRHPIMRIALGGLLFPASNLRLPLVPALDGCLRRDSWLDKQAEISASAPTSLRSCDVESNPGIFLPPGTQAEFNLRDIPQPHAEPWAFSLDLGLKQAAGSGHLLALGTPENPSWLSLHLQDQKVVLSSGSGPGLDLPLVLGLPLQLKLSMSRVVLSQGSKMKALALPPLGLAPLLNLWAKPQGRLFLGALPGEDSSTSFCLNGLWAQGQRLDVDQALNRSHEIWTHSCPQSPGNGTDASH

[2] = target: T2, Sex hormone-binding globulin (Rattus norvegicus, UniProt P08689); assay: Inhibition of rat androgen binding protein (rABP) (n=9)
T2 sequence (P08689 whole entry): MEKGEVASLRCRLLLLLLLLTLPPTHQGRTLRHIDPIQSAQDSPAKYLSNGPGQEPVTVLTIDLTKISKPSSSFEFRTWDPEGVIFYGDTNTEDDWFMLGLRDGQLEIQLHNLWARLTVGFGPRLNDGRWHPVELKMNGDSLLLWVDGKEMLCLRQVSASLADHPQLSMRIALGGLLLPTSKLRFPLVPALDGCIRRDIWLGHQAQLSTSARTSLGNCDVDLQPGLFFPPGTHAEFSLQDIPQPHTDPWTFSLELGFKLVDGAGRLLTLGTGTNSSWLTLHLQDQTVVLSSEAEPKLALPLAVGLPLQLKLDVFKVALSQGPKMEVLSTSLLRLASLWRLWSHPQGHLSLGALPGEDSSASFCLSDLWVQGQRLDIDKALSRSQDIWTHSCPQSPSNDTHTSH

`C[C@]1(O)CC[C@H]2[C@@H]3CCC4=CC(=O)CCC4=C3C=C[C@@]21C` [METRIBOLONE] showed a relative binding affinity (RBA) [1] of 0.2 and an IC50 [2] of 3.7 nM.
In the case of `Cc1cc(-c2ccccc2F)cc(C)n1`, the relative binding affinity (RBA) [1] is reported as < 0.01.
`CCOC(=O)C(/C=N/c1cccc(-c2cc(C)nc(C)c2)c1)=C(\O)OCC` was tested, and the relative binding affinity (RBA) [1] was < 0.01.
With `Cc1cc2c(c(C)n1)c(=O)oc1ccccc12` the relative binding affinity (RBA) [1] was < 0.01.
In the case of `CCOC(=O)C(/C=N/c1ccc(F)c(-c2cc(C)nc(C)c2)c1)=C(/O)OCC`, the relative binding affinity (RBA) [1] is reported as < 0.01.
`Cc1cc(-c2cc(N)ccc2F)cc(C)n1` was tested, and the relative binding affinity (RBA) [1] was < 0.01.
For `Cc1cc(-c2cc([N+](=O)[O-])ccc2F)cc(C)n1`, the relative binding affinity (RBA) [1] was < 0.01.
